Reference: US20250134884A1, “METHOD AND PHARMACEUTICAL COMPOSITION FOR TREATING TYPE II DIABETES” (LUMISTAR BIOTECHNOLOGY, INC., priority 2023, published 2025)

Tests used:
MIN6 cells [1] = assay: Insulin secretion by hINS-GLuc luciferase reporter in MIN6 β cells under high glucose; assay type: cell-based, mouse; settings: 20 mM glucose; for position among the top five compounds with significant increase in insulin secretion relative to high glucose stimulation: Table 2; for insulin secretion compared to the DMSO control group (luminescence signals from secreted insulin): MIN6 cells, FIG. 4
Method: With the inclusion of a luciferase-tagged insulin construct, hINS-GLuc allows for rapid quantification of secreted insulin in the supernatant for drug screening, unlike the traditional method of measuring insulin via ELISA. This quantification is achieved by measuring the luminescence (relative light units, RLU) upon adding the luciferin of coelenterazine.
For measuring insulin secretion, the medium will first be removed, and MIN6 cells will then be rinsed in Krebs-Ringer buffer (119 mM NaCl, 4.74 mM KCl, 2.54 mM CaCl2), 1.19 mM MgSO4, 1.19 mM KH2PO4, 25 mM NaHCO3, 10 mM Hepes, and 0.1% BSA, pH 7.4) before incubation with or without 20 mM glucose in Krebs-Ringer buffer. Compounds will be added at a final concentration of 25 μM for two hours. At the end of the incubation period, the buffer will be removed, and the cells will then be briefly centrifuged, with the supernatant collected for measuring insulin secretion. Measurement of insulin secretion and C-peptide release will be performed using either an insulin or C-peptide ELISA kit (FIG. 1A), according to the manufacturer's instructions (Mercodia), or by measuring luminescence after adding luciferin (FIGS. 2A, 2B, and 4).
With the establishment of reporter platform in β cell lines, 50 drugs screening with compounds associated with pathways associated with metabolic diseases are conducted. This included inhibitor or agonist against Glucagon-like peptide-1 (GLP-1), Cytochrome c oxidase (COX), Phosphodiesterase (PDE), AMP activated protein kinase (AMPK), dipeptidyl peptidase-4 (DPP-4), calcium and potassium channels, 5-hydroxytryptamine (5-HT) or estrogen/progestogen receptors. As compounds can either “trigger” insulin secretion (i.e., in low glucose condition) or “amplify” insulin secretion (i.e., in high glucose condition). To mimic hyperglycemic condition, the compounds that may amplify insulin secretion under high glucose conditions have been chosen.
To enable this screen, we adapted a 96 well format with β cells plated 74 hours prior to compound challenge in triplicates. Post-stimulation, supernatant was aliquoted and transferred into at least 2 empty plates for either storage or luciferase measurement with the addition of coelenterazine.
FIG. 4 is a relative light unit graph depicting the ability of various 5-HT1A receptor antagonists to induce insulin secretion in MIN6 cells in the presence of a high concentration of glucose.

MIN6 cells [2] = assay: Single cell Ca2+ flux monitoring with K-GECO1 reporter; assay type: cell-based, mouse; settings: 20 mM glucose and 25 μM WAY-100635 Maleate, FIG. 3C
Excerpt: One component of the reporter construct is a red fluorescent protein (RFP)-based Ca^2+ indicator (i.e., K-GECO1, reporter with an affinity for calcium ion) that is expressed within the cytoplasm. In this example, an inverted microscope (D1, Zeiss) equipped with a 63 Å˜objective lens (NA 1.4, Zeiss) and a multiwavelength LED light source (pE-4000, CoolLED) will be used. Blue (470 nm) and green (550 nm) excitation will be used to illuminate ChR2-EYFP and K-GECO1, respectively. The green fluorescent protein (GFP) filter set, and the red fluorescent protein (RFP) filter set will be used to confirm the expression of ChR2-EYFP and K-GECO1 in cells. […]
This allowed the detection of Ca^2+ influx into β cell as a consequence of calcium channel opening. β cells expressing the reporter construct were first stimulated with glucose (e.g., 20 mM glucose) to establish a baseline profile of Ca^2+ influx over time. […] FIG. 3A is the fluorescence intensity graph using the K-GECO1 reporter gene in Min6 cells to monitor glucose stimulation; and FIG. 3B is a representative image using the K-GECO1 reporter gene in Min6 cells after glucose stimulation. In FIG. 3A, the horizontal axis represents time (minutes), the vertical axis represents fluorescence intensity, and an arrow represents the point of stimulation and lines represent individual cells. […]

| Compound | position among the top five compounds with significant increase in insulin secretion relative to high glucose stimulation (MIN6 cells [1]; compound 25 μM, two hours) | insulin secretion compared to the DMSO control group (luminescence signals from secreted insulin) (MIN6 cells [1]) | insulin secretion relative to high glucose stimulation alone (luminescence, RLU) (MIN6 cells [1]; compound 25 μM, two hours, reporter expressing β cells, FIG. 2A) | Ca2+ influx profile (K-GECO1 fluorescence intensity) (MIN6 cells [2]) |
| --- | --- | --- | --- | --- |
| Exendin-4 | 1 | – | – | – |
| CCC(=O)c1c(O)cc(O)cc1O [Flopropione] | – | did not show a significant increase | – | – |
| Cc1[nH]c(=O)c(C#N)cc1-c1ccncc1 [Milrinone] | 5 | – | – | – |
| C[C@H](CN(C(=O)c1ccc(C#N)cc1)c1ccccn1)N1CCN(c2cccc3c2OCCO3)CC1 [Lecozotan] | – | did not show a significant increase | – | – |
| CC(C)Cn1c(=O)n(C)c(=O)c2[nH]cnc21 [IBMX] | 4 | – | – | – |
| O=c1c(O)c(-c2ccc(O)cc2)oc2cc(O)cc(O)c12 [Kaempferol] | 2 | – | – | – |
| COc1ccccc1N1CCN(CCN(C(=O)C2CCCCC2)c2ccccn2)CC1.O=C(O)/C=C\C(=O)O [WAY-100635 maleate] | 3 | significantly increased | promotes insulin secretion | significant change in Ca^2+ influx profile |
